Data reported in patent US4542144A, “Anticonvulsant N-aryl-N'-(2-thiazolidinylidene)ureas” (McNeilab Inc., priority 1983, dated 1985).

Tested on: tonic extensor seizure
Assay: Maximal Electroshock (MES) test, block of tonic extensor seizure, 45' post dose p.o.
Assay type: in vivo, mice
Design: key to MES test results (IA): IA: Inactive
Conditions: MES ED50, Compd. No. 18 vs No. 17; No. 28 vs No. 27
Excerpt: Activity in the MES test, indicating anticonvulsant activity, is characterized by a block of the tonic extensor seizure caused by applying an electric shock to mice via corneal electrodes as described in Swinyard et al., J. Pharmacol. Exp. Ther., 106, 319-330 (1952) and recorded as % block. A more recent description of current practice in anticonvulsant drug screening has also been reported by Swinyard et al., Epilepsia, 19, 409-428 (1978).

| Structure (SMILES) | potency of 3-Me compound relative to 3-H compound (more potent than 3-H) |
| --- | --- |
| Cc1cccc(C)c1NC(=O)N=C1SCCN1C [compound 18] | 2.6 × |
| CN1CCSC1=NC(=O)Nc1c(Cl)cccc1Cl [compound 28] | 4 × |

Same assay, conditions: Mus musculus, po, 0.75 h; Table I; mice, 45' post dose

| Structure (SMILES) | ED50 |
| --- | --- |
| O=C(N=C1NCCS1)Nc1ccccc1 [Table I No. 1, reference compound] | > 200 mg/kg |
| Cc1ccccc1NC(=O)N=C1NCCS1 [Table I No. 2, reference compound] | 232 mg/kg |

Same assay, conditions: Mus musculus, po, 0.75 h; Table II; mice, 45' post dose

| Structure (SMILES) | ED50 |
| --- | --- |
| Cc1ccc(NC(=O)N=C2SCCN2C)c(C)c1 [compound 20] | 178 mg/kg |
| Cc1cccc(Cl)c1NC(=O)N=C1SCCN1C [compound 26] | 15.3 mg/kg |
| CCc1cccc(C)c1NC(=O)N=C1SCCN1C [compound 16] | 17.4 mg/kg |
| CN1CCSC1=NC(=O)Nc1c(Br)cccc1Br [compound 30] | 69.6 mg/kg |
| Cc1ccc(NC(=O)N=C2SCCN2C)cc1C [compound 22] | > 200 mg/kg |
| Cc1cccc(C)c1NC(=O)N=C1NCCS1 [compound 17] | 31 mg/kg |
| Cc1cccc(C)c1NC(=O)N=C1SCCN1C [compound 18] | 11.8 mg/kg |
| CN1CCSC1=NC(=O)Nc1ccccc1C(F)(F)F [compound 11] | 92.2 mg/kg |
| CCc1cccc(CC)c1NC(=O)N=C1SCCN1C [compound 15] | 14.2 mg/kg |
| CN1CCSC1=NC(=O)Nc1ccccc1Cl [compound 5] | < 200 mg/kg |
| Cc1cc(C)c(NC(=O)N=C2SCCN2C)c(C)c1 [compound 25] | 66.5 mg/kg |
| CN1CCSC1=NC(=O)Nc1c(Cl)cccc1Cl [compound 28] | 17.4 mg/kg |
| CN1CCSC1=NC(=O)Nc1c(F)cccc1F [compound 29] | 22.7 mg/kg |
| Cc1ccccc1NC(=O)N=C1SCCN1C [compound 2] | 4.8 mg/kg |
| Cc1cccc(NC(=O)N=C2SCCN2C)c1 [compound 3] | < 200 mg/kg |
| COc1cccc(OC)c1NC(=O)N=C1SCCN1C [compound 33] | 41.2 mg/kg |
| COc1ccc(NC(=O)N=C2SCCN2C)cc1OC [compound 34] | > 200 mg/kg |
| Cc1cccc(NC(=O)N=C2SCCN2C)c1C [compound 21] | 37.2 mg/kg |
| COc1ccccc1NC(=O)N=C1SCCN1C [compound 8] | 235 mg/kg |
| COc1cccc(NC(=O)N=C2SCCN2C)c1 [compound 9] | < 200 mg/kg |
| O=C(N=C1NCCS1)Nc1c(Cl)cccc1Cl [compound 27] | 70.7 mg/kg |
| Cc1ccc(C)c(NC(=O)N=C2SCCN2C)c1 [compound 19] | 66.1 mg/kg |
| CN1CCSC1=NC(=O)Nc1c(Br)cc(F)cc1Br [compound 31] | < 200 mg/kg |

Same assay, conditions: Table I; mice, 45' post dose, 200 mg/kg p.o.

| Structure (SMILES) | % block (MES test) |
| --- | --- |
| Cc1ccccc1NC(=O)N=C1NCCS1 [Table I No. 2, reference compound] | 30% |

Same assay, conditions: Table II; mice, 45' post dose, 100 mg/kg p.o., only dose tested

| Structure (SMILES) | MES test results (IA) |
| --- | --- |
| CN1CCSC1=NC(=O)Nc1ccccc1 [compound 1] | IA |

Same assay, conditions: Table II; mice, 45' post dose, 200 mg/kg p.o.

| Structure (SMILES) | MES test results (IA) |
| --- | --- |
| CN1CCSC1=NC(=O)Nc1c(Cl)cc(Cl)cc1Cl [compound 32] | IA |
| CN1CCSC1=NC(=O)Nc1ccc(C(F)(F)F)cc1 [compound 13] | IA |
| COc1ccc(NC(=O)N=C2SCCN2C)cc1 [compound 10] | IA |
| CN1CCSC1=NC(=O)Nc1cccc(C(F)(F)F)c1 [compound 12] | IA |
| Cc1ccc(NC(=O)N=C2SCCN2C)cc1 [compound 4] | IA |
| CN1CCSC1=NC(=O)Nc1ccc([N+](=O)[O-])cc1 [compound 14] | IA |
| Cc1cc(C)cc(NC(=O)N=C2SCCN2C)c1 [compound 23] | IA |
| CN1CCSC1=NC(=O)Nc1ccc(Cl)cc1 [compound 7] | IA |
| CN1CCSC1=NC(=O)Nc1cc(C(F)(F)F)cc(C(F)(F)F)c1 [compound 24] | IA |
| CN1CCSC1=NC(=O)Nc1cccc(Cl)c1 [compound 6] | IA |

Same assay, conditions: Table II; mice, 45' post dose, 200 mg/kg p.o., only dose tested

| Structure (SMILES) | % block (MES test) | MES test results (activity in words) |
| --- | --- | --- |
| CN1CCSC1=NC(=O)Nc1ccccc1Cl [compound 5] | 70% | Active |
| Cc1cccc(NC(=O)N=C2SCCN2C)c1 [compound 3] | 70% | – |
| COc1ccc(NC(=O)N=C2SCCN2C)cc1OC [compound 34] | 20% | – |
| COc1cccc(NC(=O)N=C2SCCN2C)c1 [compound 9] | 80% | Active |
| CN1CCSC1=NC(=O)Nc1c(Br)cc(F)cc1Br [compound 31] | 80% | Active |

Same assay, conditions: Table II; mice, 45' post dose, p.o., dose not given

| Structure (SMILES) | % block (MES test) | MES test results (IA) |
| --- | --- | --- |
| Cc1ccc(NC(=O)N=C2SCCN2C)cc1C [compound 22] | 10% | – |
| Cc1ccc(NC(=O)N=C2NCCS2)cc1C [No. 22a, N-(3,4-dimethylphenyl)-N'-(2-thiazolidinylidene)urea] | – | IA |
